# Results as given in ChEMBL document CHEMBL5576135, “Discovery of Indolo[3,2-c]isoquinoline Derivatives as Novel Top1/2 Dual Inhibitors with Orally Efficacious Antitumor Activity and Low Toxicity” (J Med Chem, 2024).
# The source made the active and inactive calls. The rule behind the calls is not given here.
# Tested on: HCT-116
# Assay: Antiproliferative activity against human HCT-116 cells assessed as inhibition of cell growth incubated for 96 hrs by MTT based ELISA
# Assay type: functional
# Details: HCT-116, 96 h
row,IC50,Structure (SMILES)
1,620 nM,COc1ccc2c(c1)c1ncc3ccccc3c1n2CCCN(C)C
2,> 10000 nM,COc1ccc2c(c1)c1nc(Cl)c3ccccc3c1n2CCCN1CCOCC1
3,550 nM,COc1ccc2c(c1)c1[nH]c(=O)c3ccccc3c1n2CCCN(C)C
4,960 nM,COc1ccc2c3nc(Cl)c4ccccc4c3n(CCCN(C)C)c2c1
5,4050 nM,CN(C)CCCn1c2ccccc2c2[nH]c(=O)c3ccccc3c21
6,1650 nM,COc1ccc2c(c1)c1nc(Cl)c3ccccc3c1n2CCCN1CCN(C)CC1
7,1380 nM,COc1ccc2c(c1)c1ncc3ccccc3c1n2CCCN1CCN(C(C)C)CC1
8,1330 nM,CN(C)CCCn1c2ccccc2c2nc(Cl)c3ccccc3c21

# Tested on: MDA-MB-231
# Assay: Antiproliferative activity against human MDA-MB-231 cells assessed as inhibition of cell growth incubated for 96 hrs by MTT based ELISA
# Assay type: functional
# Details: MDA-MB-231, 96 h
row,IC50,Structure (SMILES)
1,1090 nM,COc1ccc2c(c1)c1ncc3ccccc3c1n2CCCN(C)C
2,> 10000 nM,COc1ccc2c(c1)c1nc(Cl)c3ccccc3c1n2CCCN1CCOCC1
3,1920 nM,COc1ccc2c(c1)c1[nH]c(=O)c3ccccc3c1n2CCCN(C)C
4,1360 nM,COc1ccc2c3nc(Cl)c4ccccc4c3n(CCCN(C)C)c2c1
5,5900 nM,CN(C)CCCn1c2ccccc2c2[nH]c(=O)c3ccccc3c21
6,2240 nM,COc1ccc2c(c1)c1nc(Cl)c3ccccc3c1n2CCCN1CCN(C)CC1
7,2040 nM,COc1ccc2c(c1)c1ncc3ccccc3c1n2CCCN1CCN(C(C)C)CC1
8,1950 nM,CN(C)CCCn1c2ccccc2c2nc(Cl)c3ccccc3c21

# Tested on: Huh-7
# Assay: Antiproliferative activity against human Huh-7 cells assessed as inhibition of cell growth incubated for 96 hrs by MTT based ELISA
# Assay type: functional
# Details: Huh-7, 96 h
row,IC50,Structure (SMILES)
1,1500 nM,COc1ccc2c(c1)c1ncc3ccccc3c1n2CCCN(C)C
2,> 10000 nM,COc1ccc2c(c1)c1nc(Cl)c3ccccc3c1n2CCCN1CCOCC1
3,2550 nM,COc1ccc2c(c1)c1[nH]c(=O)c3ccccc3c1n2CCCN(C)C
4,2490 nM,COc1ccc2c3nc(Cl)c4ccccc4c3n(CCCN(C)C)c2c1
5,> 10000 nM,CN(C)CCCn1c2ccccc2c2[nH]c(=O)c3ccccc3c21
6,3310 nM,COc1ccc2c(c1)c1nc(Cl)c3ccccc3c1n2CCCN1CCN(C)CC1
7,2180 nM,COc1ccc2c(c1)c1ncc3ccccc3c1n2CCCN1CCN(C(C)C)CC1
8,2990 nM,CN(C)CCCn1c2ccccc2c2nc(Cl)c3ccccc3c21

# Target: T1, DNA topoisomerase 1 (Homo sapiens) (UniProt P11387)
# T1 sequence (whole entry): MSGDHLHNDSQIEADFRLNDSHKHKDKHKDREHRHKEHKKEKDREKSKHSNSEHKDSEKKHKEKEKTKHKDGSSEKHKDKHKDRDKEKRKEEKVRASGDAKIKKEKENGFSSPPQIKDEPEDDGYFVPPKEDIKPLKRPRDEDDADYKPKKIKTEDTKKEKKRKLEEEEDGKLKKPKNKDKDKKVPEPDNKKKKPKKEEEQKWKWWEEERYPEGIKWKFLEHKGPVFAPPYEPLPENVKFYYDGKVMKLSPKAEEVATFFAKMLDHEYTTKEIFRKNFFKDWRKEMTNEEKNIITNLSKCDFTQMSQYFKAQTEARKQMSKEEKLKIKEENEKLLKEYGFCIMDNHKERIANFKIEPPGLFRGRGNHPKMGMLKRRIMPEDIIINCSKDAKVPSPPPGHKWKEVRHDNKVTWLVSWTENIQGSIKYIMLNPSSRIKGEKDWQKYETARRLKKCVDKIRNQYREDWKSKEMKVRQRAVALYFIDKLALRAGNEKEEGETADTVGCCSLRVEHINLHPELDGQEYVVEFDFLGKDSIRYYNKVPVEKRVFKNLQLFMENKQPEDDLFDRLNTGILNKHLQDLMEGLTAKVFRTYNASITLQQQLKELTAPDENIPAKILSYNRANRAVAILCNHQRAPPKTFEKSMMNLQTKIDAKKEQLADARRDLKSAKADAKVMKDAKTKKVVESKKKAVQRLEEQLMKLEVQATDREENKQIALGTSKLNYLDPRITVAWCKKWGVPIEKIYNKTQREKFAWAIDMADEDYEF
# Assay: Inhibition of Topoisomerase I (unknown origin) using pBR322 DNA as substrate at 50 uM incubated for 15 mins by EtBr staining based agarose gel electrophoresis method
# Details: not given
row,inhibition,Structure (SMILES)
1,inactive,COc1ccc2c(c1)c1ncc3ccccc3c1n2CCCN1CCN(C(C)C)CC1

# Target: DNA topoisomerase 2-alpha (Homo sapiens) (UniProt P11388)
# Sequence (P11388 whole entry): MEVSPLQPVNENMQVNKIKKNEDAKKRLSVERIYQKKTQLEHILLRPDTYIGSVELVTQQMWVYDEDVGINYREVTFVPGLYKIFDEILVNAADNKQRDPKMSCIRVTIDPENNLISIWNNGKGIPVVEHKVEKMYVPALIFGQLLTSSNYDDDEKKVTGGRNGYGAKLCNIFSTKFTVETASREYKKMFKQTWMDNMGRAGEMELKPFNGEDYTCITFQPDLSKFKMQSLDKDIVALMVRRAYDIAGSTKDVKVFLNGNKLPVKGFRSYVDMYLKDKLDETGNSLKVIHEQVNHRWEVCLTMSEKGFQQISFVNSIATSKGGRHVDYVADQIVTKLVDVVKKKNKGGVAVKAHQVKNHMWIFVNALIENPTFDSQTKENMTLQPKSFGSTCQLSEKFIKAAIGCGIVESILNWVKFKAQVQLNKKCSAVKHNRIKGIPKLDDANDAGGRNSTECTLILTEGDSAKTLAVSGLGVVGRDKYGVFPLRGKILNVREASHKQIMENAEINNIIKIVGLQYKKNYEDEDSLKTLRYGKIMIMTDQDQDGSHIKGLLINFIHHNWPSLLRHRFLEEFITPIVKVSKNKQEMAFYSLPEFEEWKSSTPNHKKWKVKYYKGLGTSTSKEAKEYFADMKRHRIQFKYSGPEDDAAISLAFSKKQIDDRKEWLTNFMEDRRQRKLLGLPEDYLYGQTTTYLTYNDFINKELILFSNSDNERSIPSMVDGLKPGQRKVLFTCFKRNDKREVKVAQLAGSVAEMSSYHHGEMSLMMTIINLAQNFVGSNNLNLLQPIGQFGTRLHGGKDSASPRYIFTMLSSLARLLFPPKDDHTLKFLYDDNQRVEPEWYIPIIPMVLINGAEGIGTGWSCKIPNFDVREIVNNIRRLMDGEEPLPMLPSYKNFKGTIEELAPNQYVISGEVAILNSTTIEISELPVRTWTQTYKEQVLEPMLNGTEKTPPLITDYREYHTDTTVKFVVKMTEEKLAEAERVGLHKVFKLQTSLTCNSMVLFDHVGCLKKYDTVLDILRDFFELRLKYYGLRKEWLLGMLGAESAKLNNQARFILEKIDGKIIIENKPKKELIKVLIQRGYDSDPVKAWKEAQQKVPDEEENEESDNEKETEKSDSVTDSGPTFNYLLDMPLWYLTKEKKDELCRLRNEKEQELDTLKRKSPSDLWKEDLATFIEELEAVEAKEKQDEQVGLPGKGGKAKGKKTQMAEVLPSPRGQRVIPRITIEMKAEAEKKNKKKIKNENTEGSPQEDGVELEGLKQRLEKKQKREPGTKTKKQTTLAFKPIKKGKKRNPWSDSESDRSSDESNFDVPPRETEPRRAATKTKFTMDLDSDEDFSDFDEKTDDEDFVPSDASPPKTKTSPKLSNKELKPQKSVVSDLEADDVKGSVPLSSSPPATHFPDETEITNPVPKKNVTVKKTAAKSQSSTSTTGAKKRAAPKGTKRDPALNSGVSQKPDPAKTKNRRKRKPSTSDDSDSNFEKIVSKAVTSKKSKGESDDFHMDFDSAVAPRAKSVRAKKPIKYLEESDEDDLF
# Assay: Inhibition of Topoisomerase 2 (unknown origin) using pBR322 DNA as substrate at 100 uM incubated for 15 mins by EtBr staining based agarose gel electrophoresis method relative to control
# Details: not given
row,inhibition,Structure (SMILES)
1,inactive,COc1ccc2c(c1)c1ncc3ccccc3c1n2CCCN1CCN(C(C)C)CC1

# Target: DNA topoisomerase 2-alpha (Homo sapiens) (UniProt P11388)
# Assay: Inhibition of Topoisomerase 2 (unknown origin) using pBR322 DNA as substrate at 50 uM incubated for 15 mins by EtBr staining based agarose gel electrophoresis method
# Details: not given
row,inhibition,Structure (SMILES)
1,inactive,COc1ccc2c(c1)c1ncc3ccccc3c1n2CCCN1CCN(C(C)C)CC1

# Tested on: NCI-H2228
# Assay: Antiproliferative activity against human NCI-H2228 cells assessed as inhibition of cell growth incubated for 96 hrs by MTT based ELISA
# Assay type: functional
# Details: NCI-H2228, 96 h
row,IC50,Structure (SMILES)
1,1050 nM,COc1ccc2c(c1)c1ncc3ccccc3c1n2CCCN(C)C
2,> 10000 nM,COc1ccc2c(c1)c1nc(Cl)c3ccccc3c1n2CCCN1CCOCC1
3,2030 nM,COc1ccc2c(c1)c1[nH]c(=O)c3ccccc3c1n2CCCN(C)C
4,1500 nM,COc1ccc2c3nc(Cl)c4ccccc4c3n(CCCN(C)C)c2c1
5,7030 nM,CN(C)CCCn1c2ccccc2c2[nH]c(=O)c3ccccc3c21
6,2410 nM,COc1ccc2c(c1)c1nc(Cl)c3ccccc3c1n2CCCN1CCN(C)CC1
7,2040 nM,COc1ccc2c(c1)c1ncc3ccccc3c1n2CCCN1CCN(C(C)C)CC1
8,1510 nM,CN(C)CCCn1c2ccccc2c2nc(Cl)c3ccccc3c21

# Tested on: PC-3
# Assay: Antiproliferative activity against human PC-3 cells assessed as inhibition of cell growth incubated for 96 hrs by MTT based ELISA
# Assay type: functional
# Details: PC-3, 96 h
row,IC50,Structure (SMILES)
1,1010 nM,COc1ccc2c(c1)c1ncc3ccccc3c1n2CCCN(C)C
2,> 10000 nM,COc1ccc2c(c1)c1nc(Cl)c3ccccc3c1n2CCCN1CCOCC1
3,1320 nM,COc1ccc2c(c1)c1[nH]c(=O)c3ccccc3c1n2CCCN(C)C
4,1650 nM,COc1ccc2c3nc(Cl)c4ccccc4c3n(CCCN(C)C)c2c1
5,4380 nM,CN(C)CCCn1c2ccccc2c2[nH]c(=O)c3ccccc3c21
6,820 nM,COc1ccc2c(c1)c1nc(Cl)c3ccccc3c1n2CCCN1CCN(C)CC1
7,1070 nM,COc1ccc2c(c1)c1ncc3ccccc3c1n2CCCN1CCN(C(C)C)CC1
8,2670 nM,CN(C)CCCn1c2ccccc2c2nc(Cl)c3ccccc3c21

# Target: T1, DNA topoisomerase 1 (Homo sapiens)
# Assay: Inhibition of Topoisomerase I (unknown origin) using pBR322 DNA as substrate at 200 uM incubated for 15 mins by EtBr staining based agarose gel electrophoresis method relative to control
# Details: not given
row,inhibition,Structure (SMILES)
1,inactive,COc1ccc2c(c1)c1ncc3ccccc3c1n2CCCN1CCN(C(C)C)CC1

# Tested on: MCF7
# Assay: Antiproliferative activity against human MCF7 cells assessed as inhibition of cell growth incubated for 96 hrs by MTT based ELISA
# Assay type: functional
# Details: MCF7, 96 h
row,IC50,Structure (SMILES)
1,1450 nM,COc1ccc2c(c1)c1ncc3ccccc3c1n2CCCN(C)C
2,> 10000 nM,COc1ccc2c(c1)c1nc(Cl)c3ccccc3c1n2CCCN1CCOCC1
3,1410 nM,COc1ccc2c(c1)c1[nH]c(=O)c3ccccc3c1n2CCCN(C)C
4,1830 nM,COc1ccc2c3nc(Cl)c4ccccc4c3n(CCCN(C)C)c2c1
5,6840 nM,CN(C)CCCn1c2ccccc2c2[nH]c(=O)c3ccccc3c21
6,1360 nM,COc1ccc2c(c1)c1nc(Cl)c3ccccc3c1n2CCCN1CCN(C)CC1
7,1450 nM,COc1ccc2c(c1)c1ncc3ccccc3c1n2CCCN1CCN(C(C)C)CC1
8,2750 nM,CN(C)CCCn1c2ccccc2c2nc(Cl)c3ccccc3c21
